# Laboratory results published in patent publication US11510928B2, “Use of mirtazapine in the treatment of inflammatory disorders, autoimmune disease and PBC” (UTI Limited Partnership, priority 2017, dated 2022).
# Tested on: hepatic cytokine and chemokine milieu
# Assay: Hepatic and plasma cytokine/chemokine levels after mirtazapine treatment (Luminex, LEGENDplex)
# Assay type: in vivo, mouse
# Procedure: Male 8-10 week old C57BL/6 mice (Jackson Labs, Bar Harbor, Me.) were used. All procedures were approved by the University of Calgary Animal Care Committee (protocol numbers AC14-0129 and AC14-0128) and were performed in accordance with the guidelines of the Canadian Council on Animal Care. […] Mirtazapine was suspended in 1% aqueous solution of Tween 80, whereas the control group received 1% aqueous solution of Tween 80. Blood and liver samples were collected 5 hours post-mirtazapine treatment (or 16 hours post-Con A treatment). The detailed experimental protocols, lists of antibodies and reagents used, flow cytometry gating, and immune cell phenotyping strategies, are described herein. To delineate the effect of mirtazapine treatment on hepatic cytokine/chemokine expression a Luminex® assay was used using methods as previously described. […] A panel of mouse cytokines/chemokines were simultaneously measured in liver homogenate samples using a mouse MILLIPLEX kit (Millipore, USA) according to the manufacturer's protocol. The multiplexing analysis was performed using the Luminex 100 system (Luminex®, USA; Eve Technologies Corporation, Calgary, Canada). Total protein concentrations in liver homogenates were quantified using a BCA Protein Assay kit (Pierce, USA) according to manufacturers instructions. Results were expressed as pg of analyte per mg of protein. Additional plasma and hepatic measurements were made using a bead-based LEGENDplex immunoassay. Plasma and hepatic levels of CXCL10/IP-10 and CXCL9/Mig were measured using BioLegend's LEGENDplex™ bead-based immunoassays in a 96-well v-bottom microplate, according to the manufacturer's protocol. At the end of the assay, all samples were transferred from the plate to FACS tubes and read on a flow cytometer (Attune® Acoustic Focusing Cytometer). After data acquisition, flow cytometry standard (FCS) files were analyzed using Biolegend's LEGENDplex data analysis software to calculate the concentrations of individual chemokines, and results were expressed as pg of analyte per mg of protein. Alternatively, the flow cytometry standard (FCS) files were analyzed using FlowJo software (Treestar, San Carlos, Calif.).
# [1] = pilot study, 4 hrs post-treatment, 20 mg/kg (FIG. 13)
smiles,measurement,setting,value
CN1CCN2c3ncccc3Cc3ccccc3C2C1 (centres unmarked) [Mirtazapine],Plasma levels of CXCL10/IP-10 and CXCL9/MIG vs vehicle,5 hours post-treatment,significantly increased
same,Increase in hepatic CXCL9 level vs vehicle,"5 hours post-treatment, ip",~7 fold
same,Increase in hepatic CXCL10 level vs vehicle,"5 hours post-treatment, ip",~120 fold
same,Increase in hepatic GM-CSF level vs vehicle,"5 hours post-treatment, ip",~1.5 fold
same,Increase in hepatic IFNγ level vs vehicle,"5 hours post-treatment, ip",~8 fold
same,Increase in hepatic IL-1β level vs vehicle,"5 hours post-treatment, ip",~1.5 fold
same,Increase in hepatic IL-4 level vs vehicle,"5 hours post-treatment, ip",~30 fold
same,Increase in hepatic IL-5 level vs vehicle,"5 hours post-treatment, ip",~2 fold
same,Increase in hepatic IL-6 level vs vehicle,"5 hours post-treatment, ip",~1.5 fold
same,Increase in hepatic IL-12 level vs vehicle,"5 hours post-treatment, ip",~1.5 fold
same,Increase in hepatic IL-12p40 level vs vehicle,"5 hours post-treatment, ip",~1.5 fold
same,Increase in hepatic IL-12p70 level vs vehicle,"5 hours post-treatment, ip",~1.5 fold
same,Increase in hepatic IL-15 level vs vehicle,"5 hours post-treatment, ip",~1.5 fold
same,Increase in hepatic IL-17 level vs vehicle,"5 hours post-treatment, ip",~1.5 fold
same,Increase in hepatic TNFα level vs vehicle,"5 hours post-treatment, ip",~1.5 fold
same,"Hepatic levels of IL-2, IL-10, IL-13, IL-7, IL-9, M-CSF, G-CSF, LIF, IL-3, CCL3/MIP-1α, CCL4/MIP-1β, CXCL2/MIP-2, CCL11/Eotaxin-1, CCL5/RANTES","5 hours post-treatment, data not shown",unaltered
same,Hepatic levels of the chemokines CXCL10/IP-10 and CXCL9/MIG vs vehicle,"5 hours post-treatment, in words",striking increases
same,"Hepatic levels of CCL2/MCP-1, CCL4/MIP-1β, CCL5/RANTES, CCL11/eotaxin-1, CCL3/MIP-1a",after mirtazapine treatment,no significant changes
same,Hepatic IL-10 levels,[1],unchanged
same,Increase in hepatic IL-4 levels,[1],50 fold
